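1) Cells in 96-well plates. 2) Compound, 48 h, 5 concentrations. 3) Linear interpolation between surrounding doses. 4) Unreached endpoint = highest concentration. The concentration for 50% growth inhibition is given as GI50.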 The source made the active and inactive calls. Rule as the data show it: active = GI50 up to about 1.1 µM and inactive = higher.
What was measured:
Assay in all cases: NCI tumour cell line growth inhibition, 48 h
NCI-H522 = tested on: NCI-H522
NCI-H23 = tested on: NCI-H23
EKVX = tested on: EKVX
HCC 2998 = tested on: HCC 2998
UO-31 = tested on: UO-31
NCI-H226 = tested on: NCI-H226
A549 = tested on: A549
HOP-62 = tested on: HOP-62
NCI-H460 = tested on: NCI-H460
M14 = tested on: M14
SK-MEL-2 = tested on: SK-MEL-2
ACHN = tested on: ACHN
U-251 = tested on: U-251
SK-MEL-5 = tested on: SK-MEL-5
CCRF-CEM = tested on: CCRF-CEM
MDA-MB-435 = tested on: MDA-MB-435
NCI/ADR-RES = tested on: NCI/ADR-RES
DU-145 = tested on: DU-145
PC-3 = tested on: PC-3

Measured: GI50

NC(=O)COc1ccccc1
inactive: NCI-H522 > 100 µM | NCI-H23 > 100 µM | EKVX > 100 µM | HCC 2998 > 100 µM | UO-31 > 100 µM | NCI-H226 > 100 µM | A549 > 100 µM | HOP-62 > 100 µM | NCI-H460 > 100 µM | M14 > 100 µM | SK-MEL-2 > 100 µM | ACHN > 100 µM | U-251 > 100 µM | SK-MEL-5 > 100 µM | CCRF-CEM > 100 µM

COC(=O)C(Cc1nc2ccccc2nc1O)/C(=N\NC(C)(C)C)C(=O)Nc1c(C)cc(Br)cc1C (configuration not stated)
inactive: NCI-H522 15.1 µM | NCI-H23 25.2 µM | EKVX 36.4 µM | HCC 2998 73.1 µM | UO-31 50.4 µM | NCI-H226 17.6 µM | A549 50.9 µM | HOP-62 35 µM | NCI-H460 30.1 µM | M14 21.8 µM | SK-MEL-2 31 µM | ACHN 32.9 µM | U-251 19.2 µM | SK-MEL-5 18.3 µM | CCRF-CEM 17.8 µM

O=C1N=C2N=C(c3ccc(Cl)cc3)N(c3ccc(Cl)cc3)N2Sc2ccccc21
inactive: NCI-H522 > 100 µM | NCI-H23 > 100 µM | EKVX > 100 µM | HCC 2998 > 100 µM | UO-31 32.4 µM | NCI-H226 > 100 µM | A549 39.8 µM | HOP-62 36.1 µM | NCI-H460 81.3 µM | M14 > 100 µM | SK-MEL-2 > 100 µM | ACHN > 100 µM | U-251 23.5 µM | SK-MEL-5 > 100 µM | CCRF-CEM > 100 µM

CC1(C)N=C(/C(C#N)=[N+](/[O-])C(=O)c2ccccc2)C(C)(C)N1O
inactive: NCI-H23 > 100 µM | MDA-MB-435 > 100 µM | NCI/ADR-RES > 100 µM | EKVX > 100 µM | HCC 2998 > 100 µM | UO-31 > 100 µM | NCI-H226 > 100 µM | DU-145 > 100 µM | A549 > 100 µM | HOP-62 > 100 µM | NCI-H460 > 100 µM | M14 > 100 µM | SK-MEL-2 > 100 µM | ACHN > 100 µM | PC-3 > 100 µM | U-251 > 100 µM | SK-MEL-5 > 100 µM | CCRF-CEM > 100 µM

CC(N)Cc1ccc(F)cc1 (configuration not stated)
inactive: NCI-H522 > 100 µM | NCI-H23 > 100 µM | EKVX > 100 µM | HCC 2998 > 100 µM | UO-31 > 100 µM | NCI-H226 > 100 µM | A549 > 100 µM | HOP-62 > 100 µM | NCI-H460 > 100 µM | M14 > 100 µM | SK-MEL-2 > 100 µM | ACHN > 100 µM | U-251 > 100 µM | SK-MEL-5 > 100 µM | CCRF-CEM > 100 µM

CC(=O)OCC(=O)OC[C@H](OCc1ccccc1)[C@@H]1[C@H](OC(C)=O)C(=O)N1Cc1ccccc1
inactive: NCI-H23 > 100 µM | MDA-MB-435 > 100 µM | NCI/ADR-RES > 100 µM | EKVX > 100 µM | UO-31 > 100 µM | NCI-H226 > 100 µM | DU-145 > 100 µM | A549 > 100 µM | HOP-62 > 100 µM | M14 > 100 µM | SK-MEL-2 > 100 µM | ACHN > 100 µM | PC-3 > 100 µM | U-251 > 100 µM | SK-MEL-5 > 100 µM | CCRF-CEM > 100 µM

Cc1ccc(C2=Nc3ccccc3NC(=O)C2)cc1
inactive: NCI-H522 98.4 µM | NCI-H23 > 100 µM | EKVX > 100 µM | HCC 2998 > 100 µM | UO-31 > 100 µM | NCI-H226 12.7 µM | A549 > 100 µM | HOP-62 > 100 µM | NCI-H460 > 100 µM | M14 > 100 µM | SK-MEL-2 > 100 µM | ACHN > 100 µM | U-251 32.2 µM | SK-MEL-5 > 100 µM | CCRF-CEM 38 µM

CCNC(=O)OCc1c(COC(=O)NCC)c(-c2ccc(Cl)c(Cl)c2)n2c1CCC2
inactive: NCI-H522 6.58 µM | NCI-H23 8.05 µM | HCC 2998 14.3 µM | UO-31 5.22 µM | NCI-H226 1.75 µM | A549 18.5 µM | HOP-62 7.33 µM | NCI-H460 4.61 µM | M14 11.1 µM | SK-MEL-2 13.1 µM | ACHN 4.88 µM | U-251 10.5 µM | SK-MEL-5 14.9 µM | CCRF-CEM 4.09 µM

CC1OC(n2cc(F)c(=O)[nH]c2=O)C=CC1=O (configuration not stated)
inactive: NCI-H522 9.38 µM | NCI-H23 83 µM | HCC 2998 17.8 µM | UO-31 16.1 µM | NCI-H226 24.7 µM | A549 > 100 µM | HOP-62 38.8 µM | NCI-H460 21.6 µM | M14 17.5 µM | SK-MEL-2 15.1 µM | ACHN 18 µM | U-251 14.8 µM | SK-MEL-5 17.4 µM | CCRF-CEM 13.8 µM

Cc1ccc(SCC(CSCCO)OCn2cnc3c2N=C(N)NC32OCCO2)cc1 (configuration not stated)
inactive: NCI-H522 > 100 µM | NCI-H23 > 100 µM | MDA-MB-435 > 100 µM | NCI/ADR-RES > 100 µM | EKVX 83 µM | HCC 2998 > 100 µM | UO-31 > 100 µM | DU-145 > 100 µM | A549 > 100 µM | HOP-62 > 100 µM | NCI-H460 > 100 µM | M14 > 100 µM | SK-MEL-2 > 100 µM | ACHN > 100 µM | PC-3 > 100 µM | U-251 > 100 µM | SK-MEL-5 > 100 µM | CCRF-CEM > 100 µM

CO/N=C/c1cc(OC)c(OC)c(OC)c1
inactive: NCI-H522 > 100 µM | NCI-H23 > 100 µM | EKVX > 100 µM | HCC 2998 > 100 µM | UO-31 > 100 µM | NCI-H226 > 100 µM | A549 > 100 µM | HOP-62 > 100 µM | NCI-H460 > 100 µM | M14 > 100 µM | SK-MEL-2 > 100 µM | ACHN > 100 µM | U-251 > 100 µM | SK-MEL-5 > 100 µM | CCRF-CEM > 100 µM

CCOC(=O)[C@H](Cc1ccccc1)NC(=O)c1nc[nH]c1[N+](=O)[O-]
inactive: NCI-H522 > 100 µM | NCI-H23 > 100 µM | EKVX > 100 µM | HCC 2998 > 100 µM | UO-31 > 100 µM | NCI-H226 > 100 µM | A549 > 100 µM | HOP-62 > 100 µM | NCI-H460 > 100 µM | M14 > 100 µM | SK-MEL-2 > 100 µM | ACHN > 100 µM | U-251 > 100 µM | SK-MEL-5 > 100 µM | CCRF-CEM > 100 µM

O=C1CC(c2cccc(Cl)c2)Oc2ccccc21 (configuration not stated)
inactive: NCI-H23 10.2 µM | MDA-MB-435 17.4 µM | NCI/ADR-RES 26.2 µM | EKVX 14.8 µM | HCC 2998 15.4 µM | UO-31 13.8 µM | NCI-H226 21.4 µM | DU-145 17.7 µM | HOP-62 17.1 µM | NCI-H460 18.4 µM | M14 18.1 µM | SK-MEL-2 19.9 µM | ACHN 16.2 µM | PC-3 15.7 µM | U-251 25.5 µM | SK-MEL-5 17.9 µM | CCRF-CEM 10.1 µM

From ChEMBL document CHEMBL1201862, “PubChem BioAssay data set” (2004)
